Converted amounts (≈) assume the structure as drawn. “Also recorded” adds a separate entry of the source. Like-named read-outs stand apart in the source and are kept apart here.
Tests used:
response regulator HsrA = experiment: EMSA: inhibition of in vitro DNA binding activity of HsrA to promoter PporGDAB; assay type: biochemical, Helicobacter pylori; details: 6 μM HsrA, 120 ng PporGDAB, ligand 0.1-2 mM
Method: The DNA binding activities of recombinant HsrA and CosR were assessed in vitro by electrophoretic mobility shift assays (EMSAs). A 300-bp promoter region of the H. pylori 26695 operon porGDAB was used as the target sequence of HsrA in all EMSA experiments. Likewise, a 420-bp sequence of the C. jejuni sodB promoter (ATCC 33560) was used as the target DNA of CosR [90]. The oligonucleotides used for the synthesis of these promoter regions are described in Supplementary Table S4. Response regulators HsrA (6 μM) or CosR (700 nM) were mixed with 120 ng of their target promoters in a reaction buffer of 10 mM bis-Tris (pH 7.5), 40 mM KCl, 100 mg/L BSA, 1 mM DTT, and 5% glycerol. For the in vitro inhibition analyses, mixtures of target DNA and response regulator were exposed to 2, 1, 0.5, and 0.1 mM of each compound of interest, incubated at room temperature for 20 min, and then separated on a 6% non-denaturing electrophoresis. DMSO instead of inhibitors was included as a vehicle control, while an internal sequence of the Anabaena sp. pkn22 gene was used as the non-specific competitor in all assays. For DNA-protein binding visualization, gels were stained with the SYBR Safe DNA gel stain (Invitrogen) and analyzed with a Gel Doc 2000 Image Analyzer (Bio-Rad).

H. pylori = experiment: MIC across the four H. pylori strains tested (text summaries); assay type: cell-based, Helicobacter pylori; details: for MIC: Helicobacter pylori
Method: The antimicrobial activity of the HsrA inhibitors was evaluated by the determination of the minimal inhibitory concentration (MIC) against four different strains of H. pylori: ATCC 700392 (aka 26695), ATCC 43504 (MTZ-resistant reference strain), ATCC 700684 (CLR-resistant reference strain), and Donostia 2 (LVX-resistant clinical isolate). The MICs were determined by the broth microdilution method, as previously described. Briefly, H. pylori strains were grown in blood agar at 37 °C for 72 h under microaerobic conditions. Fresh inoculums adjusted at OD600 = 0.01 [~10^6 colony forming units (CFU) per mL] in BHI broth supplemented with 4% fetal bovine serum (BHI + FBS) were prepared and immediately exposed to final concentrations between 64 and 0.031 mg/L of each compound of interest. The compound solvent (DMSO) as well as conventional antibiotics (MTZ, CLR, LVX) were included as controls. […] Each experiment was performed twice in triplicate. The MIC and MBC values of the selected compounds against C. jejuni ATCC 33560 were determined by using the same method and culture conditions described for the H. pylori strains.

[1] = Cytotoxicity, PrestoBlue cell viability assay; assay type: cell-based; details: human; HeLa cells, 24 h exposure; read-out: CC50 (50% cytotoxic concentration)
Method: (§1) The in vitro toxicity of the selected HsrA inhibitors was determined on HeLa cells by the PrestoBlue^TM assay, as previously described. Briefly, cells were cultured at 37 °C with 5% CO2 in Dulbecco’s modified Eagle’s medium containing 10% fetal bovine serum, 1% L-GlutaMAX^TM solution (Thermo Fisher Scientific), and 1% penicillin/streptomycin. When 80% confluence was achieved, cells were detached, counted, seeded in 96-well microplates at a density of 10,000 cells per well, and allowed to adhere for 24 h. Next, the mammalian cells were exposed to selected compounds at a range of 0.125 to 128 mg/L. After 24 h of exposure, the cell viability was measured with the PrestoBlue^TM cell viability reagent (Thermo Fisher Scientific), according to the manufacturer’s instructions. Experiments were performed twice in triplicate. The 50% cytotoxic concentration (CC50) of each compound was calculated by regression analysis using Microsoft Excel. Therapeutic index (TI) values were calculated as the ratio of the CC50 to the higher MIC observed for each compound [111].

HeLa cells = experiment: Cytotoxicity, PrestoBlue cell viability assay; assay type: cell-based; details: for TI (CC50/MIC), therapeutic index: CC50 on HeLa / higher MIC observed against H. pylori
Method: as §1

E. coli ATCC 25922 = experiment: MIC/MBC according to EUCAST guidelines; assay type: cell-based; details: Escherichia coli, ATCC25922
Method: (§2) The antimicrobial activities of the selected compounds against several Gram-negative and Gran-positive representative species of normal human microbiota were determined according to the EUCAST guidelines. Briefly, standardized inoculums (0.5 McFarland) were freshly prepared from overnight Mueller–Hinton agar plates of reference strains E. coli ATCC 25922, K. pneumonia ATCC 700603, E. faecalis ATCC 29212, S. aureus ATCC 29213, S. epidermidis ATCC 12228, and S. agalactiae ATCC 12386. Next, bacterial suspensions adjusted to 5 × 10^5 CFU/mL in Mueller–Hinton broth were exposed to a range of concentrations from 64 to 0.031 mg/L of the selected compounds. DMSO and conventional antibiotics LVX and AMP were included as controls. […] Experiments were performed twice in triplicate.

S. agalactiae ATCC 12386 = experiment: MIC/MBC according to EUCAST guidelines; assay type: cell-based; details: Streptococcus agalactiae, ATCC12386
Method: as §2

E. faecalis ATCC 29212 = experiment: MIC/MBC according to EUCAST guidelines; assay type: cell-based; details: Enterococcus faecalis, ATCC29212
Method: as §2

[2] = test system: S. epidermidis ATCC 12228; experiment: MIC/MBC according to EUCAST guidelines; assay type: cell-based; details: Staphylococcus epidermidis, ATCC12228
Method: as §2

[3] = test system: K. pneumoniae ATCC 700603; experiment: MIC/MBC according to EUCAST guidelines; assay type: cell-based, Klebsiella pneumonia; details: Klebsiella pneumoniae, ATCC700603
Method: as §2

HsrA = HsrA (Helicobacter pylori, UniProt O25684); experiment: Isothermal titration calorimetry (ITC) with HsrA; assay type: binding; details: for ΔG: absolute error 0.1; for ΔH: absolute error 0.4
Method: Molecular interactions of the selected ligands with proteins HsrA or CosR were studied by isothermal titration calorimetry (ITC), as previously described. Titrations were assessed in a high-sensitivity MicroCal Auto-iTC200 calorimeter (Malvern Panalytical, Malvern, UK). Experiments were carried out at 25 °C in freshly prepared buffer containing 50 mM Tris-HCl [pH 8], 150 mM NaCl, 10% glycerol, and 1% DMSO. A 20 µM solution of protein was located in the calorimetric cell. Then, a sequence of 19 injections of 2 µL volume each with a 200 µM solution of the corresponding ligand was programmed with a time spacing of 150 s, a stirring speed of 750 rpm, and a reference power of 10 µcal/s in the sample cell. Thermodynamic properties such as binding stoichiometry, dissociation constants, and binding enthalpies were calculated by nonlinear least-squares regression data analysis using Origin 7.0 software.

[4] = four strains incl. CLR-, MTZ- and LVX-resistant, read-out: MIC against all H. pylori strains tested
[5] = ITC, 25 °C, pH 8, relative error 15%, read-out: Kd

HsrA, sequence (O25684 entry or part of it): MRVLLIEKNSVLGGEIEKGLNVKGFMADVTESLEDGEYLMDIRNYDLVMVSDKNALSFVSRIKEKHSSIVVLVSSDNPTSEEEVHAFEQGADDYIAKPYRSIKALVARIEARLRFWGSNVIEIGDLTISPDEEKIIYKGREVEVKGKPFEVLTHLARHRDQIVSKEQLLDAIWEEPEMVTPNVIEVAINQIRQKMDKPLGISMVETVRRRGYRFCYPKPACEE

Compound | Inhibition of in vitro DNA binding activity of HsrA (EMSA) (response regulator HsrA) | MIC (H. pylori; [4]) [µg/mL] | CC50 at 24 h [1] [µg/mL] | Cytotoxicity at 8 mg/L (HeLa cells; HeLa cells, 8 mg/L, 24 h) | MBC (E. coli ATCC 25922) [µg/mL] | MIC (E. coli ATCC 25922) [µg/mL] | MBC (S. agalactiae ATCC 12386) [µg/mL] | MIC (S. agalactiae ATCC 12386) [µg/mL] | MBC (E. faecalis ATCC 29212) [µg/mL] | MIC (E. faecalis ATCC 29212) [µg/mL] | MBC [2] [µg/mL] | MIC [2] [µg/mL] | MBC [3] [µg/mL] | MIC [3] [µg/mL] | n (stoichiometry) (HsrA; ITC, 25 °C, pH 8) | ΔG (HsrA; ITC, 25 °C) | ΔH (HsrA; ITC, 25 °C) | TI (CC50/MIC), therapeutic index (HeLa cells) | Kd (HsrA; [5]) [µM] | other results
CSc1cccc(NC(=S)NCCNc2c([N+](=O)[O-])cc(C(F)(F)F)cc2[N+](=O)[O-])c1 [Ligand IV] | appreciably stronger; also recorded: noticeably inhibited | 0.031 to 4 (≈ 0.0652 to 8.41 µM) | 135 (≈ 284 µM) | completely safe | > 64 | > 64 | > 64 | > 64 | > 64 | > 64 | > 64 | > 64 | > 64 | > 64 | 0.9 | –7.4 kcal/mol | –1.6 kcal/mol | – | – | Kd (HsrA): 3.9 µM
N#C/C(=C\C=C\c1ccccc1)c1nc2ccccc2[nH]1 [Ligand XII] | noticeably inhibited | 0.031 to 4 (≈ 0.114 to 14.7 µM) | 13.4 (≈ 49.4 µM) | – | > 64 | > 64 | > 64 | > 64 | > 64 | > 64 | > 64 | > 64 | > 64 | > 64 | 1.0 | –6.0 kcal/mol | 0.8 kcal/mol | 6.7 | 43 | –
OC1(C(F)(F)F)CC(c2ccc3c(c2)Nc2ccccc2S3)=NN1 (stereo not drawn) [Ligand VIII] | appreciably stronger; also recorded: noticeably inhibited | 0.031 to 4 (≈ 0.0882 to 11.4 µM) | 6.5 (≈ 18.5 µM) | – | > 64 | > 64 | 32 (≈ 91.1 µM) | 16 (≈ 45.5 µM) | 64 (≈ 182 µM) | 64 (≈ 182 µM) | 4 (≈ 11.4 µM) | 4 (≈ 11.4 µM) | > 64 | > 64 | 0.9 | –6.8 kcal/mol | 0.8 kcal/mol | 3.2 | 10 | Cell death (HeLa cells; HeLa cells, 8 mg/L, 24 h): 68%
NC(=NOC(=O)Nc1ccc(Cl)cc1)c1csc([N+](=O)[O-])c1 [Ligand V, N′-{[(4-chloroanilino)carbonyl]}oxy-5-nitrothiophene-3-carboximidamide] | noticeably inhibited | 0.031 to 4 (≈ 0.091 to 11.7 µM) | 183 (≈ 538 µM) | completely safe | > 64 | > 64 | > 64 | > 64 | > 64 | > 64 | > 64 | > 64 | > 64 | > 64 | 1.0 | –6.7 kcal/mol | –1.9 kcal/mol | – | 13 | MIC (H. pylori; read-out: MIC against all H. pylori strains tested, four strains incl. CLR-, MTZ- and LVX-resistant): 0.031 to 0.125 µg/mL (≈ 0.091 to 0.367 µM); Antimicrobial potency relative to ligand XII (H. pylori; same H. pylori strains): at least 4 fold; Antimicrobial potency relative to metronidazole (H. pylori; same H. pylori strains): more than 10 fold; Affinity to HsrA relative to ligand XII (HsrA; ITC): > 3 fold
CSc1cccc(Nc2nc(C(C)(C)C)cs2)c1 [Ligand XI] | noticeably inhibited | 0.031 to 4 (≈ 0.111 to 14.4 µM) | 21.8 (≈ 78.3 µM) | completely safe | > 64 | > 64 | 8 (≈ 28.7 µM) | 8 (≈ 28.7 µM) | 64 (≈ 230 µM) | 64 (≈ 230 µM) | 64 (≈ 230 µM) | 16 (≈ 57.5 µM) | > 64 | > 64 | 1.1 | –5.9 kcal/mol | –3.1 kcal/mol | 5.4 | 49 | –
N#Cc1cnn(-c2ccc(C(F)(F)F)cc2[N+](=O)[O-])c1N [Ligand I] | noticeably inhibited | 0.031 to 4 (≈ 0.104 to 13.5 µM) | 119 (≈ 401 µM) | completely safe | > 64 | > 64 | 64 (≈ 215 µM) | 32 (≈ 108 µM) | > 64 | > 64 | > 64 | > 64 | > 64 | > 64 | 1.0 | –6.7 kcal/mol | –1.2 kcal/mol | – | 13 | –

Reference: paper PMC11432330, “Novel Drug-like HsrA Inhibitors Exhibit Potent Narrow-Spectrum Antimicrobial Activities against Helicobacter pylori” (International Journal of Molecular Sciences, 2024)
